This is an account of results in patent publication US20240190842A1, “SUBSTITUTED QUINOLINONE-8-CARBONITRILE DERIVATIVES HAVING ANDROGEN DEGRADATION ACTIVITY AND USES THEREOF” (Accutar Biotechnology Inc., priority 2022, published 2024).

Assay [1] relates to LNCAP cells. The assay is described as follows: Inhibition of R1881 stimulated cell growth in LNCAP cells (CellTiter-Glo). It counts as cell-based. The following applies: Homo sapiens, 144 h, 10% CSS, 6 days. As for the experimental part:
(§1) LNCAP and VCAP cells were seeded in 96-well plates at 5000 (LNCAP) and 6000 (VCAP) cells/well in phenol red-free RPM11640 supplemented with 10% charcoal stripped serum (CSS), and then incubated at 37° C. overnight. The following day, the test compound was administered to the cells by using 1000× compound stock solution prepared in DMSO at various concentrations. 1000× compound stock solution was first diluted 1:100 in phenol red-free RPM11640 supplemented with 10% CSS and 1 nM R1881 to prepare the 10× treatment solutions containing serial dilutions of AC176 together in the presence of 1 nM, and then 10 uL compound medium was added to each well in the cell plates. After administration of the compound, the cells were then incubated at 37° C. for 6 days. Upon completion, the plates were equilibrated at room temperature for approximately 10 minutes. 100 ul of CellTiter-Glo® 3D Reagent (Promega) was added to each well. The plates were then incubated at room temperature for 30 minutes and luminescence was recorded by EnSpire plate reader (PerkinElmer). The results are shown in Table 5, which summarizes the growth inhibition (G150) in LNCAP and VCAP cells with exemplary compounds of the present disclosure.
(ATP-based viability assays read luminescence as a measure of living cells.)

For assay [2], the system named is VCAP cells. The assay is described as follows: Inhibition of R1881 stimulated cell growth in VCAP cells (CellTiter-Glo). To be noted: Homo sapiens, 144 h, 10% CSS, 6 days. It counts as cell-based. The method, then:
as §1

The GI50 is the concentration giving 50% growth inhibition.

As for `CC1(C)[C@H](NC(=O)c2ccc(N3CCC(CN4CCN(c5ccc6c(c5)CN([C@H]5CCC(=O)NC5=O)C6=O)CC4)CC3)c(F)c2)C(C)(C)[C@H]1Oc1ccc(C#N)c2[nH]c(=O)ccc12` [Compound 16, N-((1,3-trans)-3-((8-cyano-2-oxo-1,2-dihydroquinolin-5-yl)oxy)-2,2,4,4-tetramethylcyclobutyl)-4-(4-((4-(2-((S)-2,6-dioxopiperidin-3-yl)-1-oxoisoindolin-5-yl)piperazin-1-yl)methyl)piperidin-1-yl)-3-fluorobenzamide], the GI50 in assay [1] and in assay [2] was not above 50 nM throughout.

Turning to `CC1(C)C(NC(=O)c2ccc(N3CCC(CN4CCN(c5ccc6c(c5)CN([C@H]5CCC(=O)NC5=O)C6=O)CC4)CC3)cc2)C(C)(C)C1Oc1ccc(C#N)c2[nH]c(=O)ccc12` (stereo partly drawn) [Compound 18, N-((1,3-trans)-3-((8-cyano-2-oxo-1,2-dihydroquinolin-5-yl)oxy)-2,2,4,4-tetramethylcyclobutyl)-4-(4-((4-(2-((S)-2,6-dioxopiperidin-3-yl)-1-oxoisoindolin-5-yl)piperazin-1-yl)methyl)piperidin-1-yl)benzamide], the GI50 in assay [1] and in assay [2] was not above 50 nM each time.

For `CC1(C)C(NC(=O)c2ccc(N3CCC(CN4CCN(c5ccc6c(c5)C(=O)N(C5CCC(=O)NC5=O)C6=O)CC4)CC3)cc2)C(C)(C)C1Oc1ccc(C#N)c2[nH]c(=O)ccc12` (stereo not drawn) [Compound 20, N-((1,3-trans)-3-((8-cyano-2-oxo-1,2-dihydroquinolin-5-yl)oxy)-2,2,4,4-tetramethylcyclobutyl)-4-(4-((4-(2-(2,6-dioxopiperidin-3-yl)-1,3-dioxoisoindolin-5-yl)piperazin-1-yl)methyl)piperidin-1-yl)benzamide], the 50% growth inhibitory concentration (GI50) in assay [1] was more than 500 nM; in assay [2], 50 to 500 nM.

With `CC1(C)C(NC(=O)c2ccc(N3CCC(CN4CCN(c5ccc6c(c5)CN([C@H]5CCC(=O)NC5=O)C6=O)CC4)CC3)cc2)C(C)(C)C1Oc1ccc(C#N)c2[nH]ccc(=O)c12` (stereo partly drawn) [Compound 30, N-((1,3-trans)-3-((8-cyano-4-oxo-1,4-dihydroquinolin-5-yl)oxy)-2,2,4,4-tetramethylcyclobutyl)-4-(4-((4-(2-((S)-2,6-dioxopiperidin-3-yl)-1-oxoisoindolin-5-yl)piperazin-1-yl)methyl)piperidin-1-yl)benzamide], the 50% growth inhibitory concentration (GI50) in assay [1] and in assay [2] was not above 50 nM in each case.

Consider `Cn1c(=O)ccc2c(OC3C(C)(C)C(NC(=O)c4ccc(N5CCC(CN6CCN(c7ccc8c(c7)CN([C@H]7CCC(=O)NC7=O)C8=O)CC6)CC5)cc4)C3(C)C)ccc(C#N)c21` (stereo partly shown) [Compound 34], for which the GI50 in assay [1] and in assay [2] was not above 50 nM throughout.

As for `Cn1ccc(=O)c2c(O[C@H]3C(C)(C)[C@H](NC(=O)c4ccc(N5CCC(CN6CCN(c7ccc8c(c7)CN([C@H]7CCC(=O)NC7=O)C8=O)CC6)CC5)cc4)C3(C)C)ccc(C#N)c21` [Compound 39, N-((1,3-trans)-3-((8-cyano-1-methyl-4-oxo-1,4-dihydroquinolin-5-yl)oxy)-2,2,4,4-tetramethylcyclobutyl)-4-(4-((4-(2-((S)-2,6-dioxopiperidin-3-yl)-1-oxoisoindolin-5-yl)piperazin-1-yl)methyl)piperidin-1-yl)benzamide], the GI50 in assay [1] and in assay [2] was not above 50 nM in each case.

Regarding `CC1(C)C(NC(=O)c2ccc(N3CCC(CN4CCN(c5ccc(C(=O)N[C@H]6CCC(=O)NC6=O)nc5)CC4)CC3)cc2)C(C)(C)C1Oc1ccc(C#N)c2[nH]c(=O)ccc12` (stereo partly drawn) [Compound 43, 5-(4-((1-(4-(((1,3-trans)-3-((8-cyano-2-oxo-1,2-dihydroquinolin-5-yl)oxy)-2,2,4,4-tetramethylcyclobutyl)carbamoyl)phenyl)piperidin-4-yl)methyl)piperazin-1-yl)-N-((S)-2,6-dioxopiperidin-3-yl)picolinamide], the figures for the GI50 in assay [1] and in assay [2] were more than 500 nM and 50 to 500 nM, respectively.

Consider `CC1(C)C(NC(=O)c2ccc(N3CCC(CN4CCN(c5ccc6c(=O)n(C7CCC(=O)NC7=O)ncc6c5)CC4)CC3)cc2)C(C)(C)C1Oc1ccc(C#N)c2[nH]c(=O)ccc12` (stereo not drawn) [Compound 49, N-((1,3-trans)-3-((8-cyano-2-oxo-1,2-dihydroquinolin-5-yl)oxy)-2,2,4,4-tetramethylcyclobutyl)-4-(4-((4-(2-(2,6-dioxopiperidin-3-yl)-1-oxo-1,2-dihydrophthalazin-6-yl)piperazin-1-yl)methyl)piperidin-1-yl)benzamide], for which the GI50 is more than 500 nM in assay [1] and 50 to 500 nM in assay [2].
